Data: patent publication US4278595A, “Orally active MIF analogs with an effect on the central nervous system” (Vega Laboratories, Inc., priority 1979, dated 1981)
Where a SMILES comes first, the peptide text is derived from it. [ ]: non-standard residue; d: D form. pGlu = O=C1CC[C@@H](C(=O)O)N1

Tests used:
Type in all cases: in vivo, rat
[1] = system: male Sprague-Dawley rats with unilateral 6-hydroxy-Dopamine lesion in the substantia nigra; experiment: Duration of L-DOPA-reversed rotational behavior in rats with unilateral 6-hydroxy-Dopamine lesion of the substantia nigra (third series)
Protocol: The MIF analogs were tested for "Parkinsonion" locomotor behavior response by three different test procedures. In the third series of tests, male Sprague-Dawley rats received a unilateral chemical lesion (by injection of 6-hydroxy-Dopamine) in the substantia nigra, which is followed by rotational movement. When L-DOPA is given i.p. (in two doses, 13 and 26 mg/kg) the direction of rotational movement is reversed, and the duration of the reversed rotational motion was measured in minutes. The same doses of L-DOPA were then given in the experimental groups in combination with 2 mg/kg of either MIF or the MIF analogs, all i.p., or by gastric tube in a dose of 4 mg/kg, and the duration, in minutes, of reversed rotational behavior was observed.

[2] = system: reserpinized male Long-Evans rats; experiment: Locomotor activity of reserpinized rats after intraventricular administration (first series); conditions: rats reserpinized i.p. 10 mg/kg
Protocol: (§1) The MIF analogs were tested for "Parkinsonion" locomotor behavior response by three different test procedures.
In the first series of tests, male Long-Evans rats were prepared with a cannula fixed from the exterior to the lateral ventricle for direct intraventricular administration. The rats were reserpinized i.p. (10 mg/kg), and then MIF or MIF analogs, were given directly into the CSF. Activity of the rats was measured in counts/10 minutes with a digital printout activity meter (Columbus Instruments, model PB 5244, Columbus, Ohio). The results of these tests are as follows

[3] = system: reserpinized male Long-Evans rats; experiment: L-DOPA potentiation: locomotor activity of reserpinized rats given agent i.p. with Carbi-DOPA and L-DOPA (second series); conditions: 2 mg/kg i.p. with 10 mg/kg Carbi-DOPA and 100 mg/kg L-DOPA
Protocol: as §1
In the second series of tests, male Long-Evans rats prepared and reserpinized as described for the first series, were treated i.p. with 2 mg/kg of MIF or MIF analog, 10 mg/kg of Carbi-DOPA, a competitive inhibitor of DOPA-decarboxylase (to prolong the L-DOPA effect), and 100 mg/kg of L-DOPA. The control group received the latter two substances, but no MIF or MIF analog. Activity of the rats was measured, in counts/10 minutes with a digital printout activity meter, at 15, 35, 55, 75, 95 and 105 minutes after injection.

[4] = Injection: L-DOPA i.p. (13 and 26 mg/kg) alone or in combination with 2 mg/kg MIF or analog i.p.
[5] = Oral: L-DOPA i.p. (13 and 26 mg/kg) alone or in combination with 4 mg/kg MIF or analog by gastric tube
[6] = 10 ng directly into the CSF (lateral ventricle)
[7] = 100 ng directly into the CSF (lateral ventricle)

Compound | Duration of Reversed Rotational Behavior [1, 4] | Duration of Reversed Rotational Behavior [1, 5] | % Increase in Activity, Counts/10 Minutes [2, 6] | % Increase in Activity, Counts/10 Minutes [2, 7] | % Increase in Activity, counts/10 min. ([3]; 15 min. after injection) | % Increase in Activity, counts/10 min. ([3]; 35 min. after injection) | % Increase in Activity, counts/10 min. ([3]; 55 min. after injection) | % Increase in Activity, counts/10 min. ([3]; 75 min. after injection) | % Increase in Activity, counts/10 min. ([3]; 95 min. after injection) | % Increase in Activity, counts/10 min. ([3]; 105 min. after injection)
CC(C)C[C@H](NC(=O)[C@@H]1CCCN1)C(=O)NCC(N)=O [MIF, Pro--L--Leu--Gly--NH2, reference compound] (H-Pro-Leu-Gly-NH2) | 55 ± 6.2 min | 58 ± 5.3 min | No effect | No effect | – | – | – | – | – | –
CC(C)C[C@@H](NC(=O)[C@@H]1CCC(=O)N1)C(=O)NCC(N)=O [pGlu--D--Leu--Gly--NH2] ([pGlu]-[dL]-Gly-NH2) | 96 ± 7.9 min | 110 ± 9.3 min | 240% | 360% | 126% | 538% | 2450% | 2036% | 1035% | 478%
N[C@@H](Cc1ccc(O)c(O)c1)C(=O)O [L-DOPA] | 38 ± 3.4 min | 38 ± 3.4 min | – | – | – | – | – | – | – | –
